Here are results for 25 compounds from US11090304B2 (Amgen Inc., priority 2018, dated 2021).

The target in experiment [1] is GDP-bound KRAS protein (aa 1-169), containing both G12C and C118A amino acid substitutions (Homo sapiens, UniProt P01116, C118A/G12C). The experiment can be described thus: Coupled nucleotide exchange assay (SOS-mediated, AlphaScreen). Format: biochemical. The settings on record: 5 min compound pre-incubation.
Experiment [2] concerns Phosphorylation of ERK1/2 in MIA PaCa-2 cells. The experiment can be described thus: Phospho-ERK1/2 MSD assay in MIA PaCa-2 cells. The experiment is classed as cell-based. The settings on record: read-out: p-ERK IC50 (2 h; MIA PaCa-2), 2 h compound treatment. In a few lines:
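In the procedure, cells were plated a day ahead at 25,000 per well. Next, a dilution series of compound in growth medium was added for 2 or 4 h. EGF (10 ng/mL) stimulation for 10 min preceded washing and RIPA lysis. Lysate phospho-ERK1/2 was read by MSD, with IC50 derived by 4-parameter logistic analysis.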

Where two headings read alike, the source gives them in different places.

Chain of GDP-bound KRAS protein (aa 1-169), containing both G12C and C118A amino acid substitutions (P01116 1-169 isoform P01116-2 G12C/C118A): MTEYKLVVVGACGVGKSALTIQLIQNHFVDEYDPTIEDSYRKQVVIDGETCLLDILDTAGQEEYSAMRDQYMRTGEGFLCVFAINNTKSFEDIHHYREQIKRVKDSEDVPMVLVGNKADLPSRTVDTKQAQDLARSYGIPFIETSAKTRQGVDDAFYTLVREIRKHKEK

With `C=CC(=O)N1CCN(c2nc(=O)n(-c3c(C)ccnc3CC)c3nc(-c4c(O)cccc4F)c(F)cc23)[C@@H](C)C1` (single isomer, unassigned) [Example 57-1-1], in experiment [1], the “Coupled exchange IC50 (5 min)” value is listed as 0.524 | nda μM. In experiment [2] (Homo sapiens, MIA PaCa-2, 2 h), the IC50 was 0.63 µM.
For `C=CC(=O)N1CCN(c2nc(=O)n(-c3ccccc3C(C)C)c3nc(-c4c(O)cccc4F)c(F)cc23)[C@@H](C)C1` (single isomer, unassigned) [Example 57-6-1], the “Coupled exchange IC50 (5 min)” value in experiment [1] is on record as 3.163 | nda μM. For the same compound, the IC50 in experiment [2] came out at 2.09 µM.
For the compound `C=CC(=O)N1CCN(c2nc(=O)n(-c3ccccc3C(C)C)c3nc(-c4ccccc4Cl)c(F)cc23)[C@@H](C)C1` (single isomer, unassigned) [Example 57-8-2], the “Coupled exchange IC50 (5 min)” value in experiment [1] is listed as 0.514 | nda μM. Further, in experiment [2] (Homo sapiens, MIA PaCa-2, 2 h), the IC50 is 0.166 µM.
Regarding `C=CC(=O)N1CCN(c2nc(=O)n(-c3c(C)cccc3CC)c3nc(-c4c(O)cccc4F)c(F)cc23)[C@@H](C)C1` (single isomer, unassigned) [Example 57-14-1], the “Coupled exchange IC50 (5 min)” value in experiment [1] is listed as 0.288 | nda μM. Also, in experiment [2] (Homo sapiens, MIA PaCa-2, 2 h), the IC50 is 0.348 µM.
As to `C=CC(=O)N1CCN(c2nc(=O)n(-c3c(Cl)cccc3C(C)C)c3nc(-c4c(O)cccc4F)c(F)cc23)[C@@H](C)C1` (single isomer, unassigned) [Example 57-15-1], the “Coupled exchange IC50 (5 min)” value in experiment [1] is 0.089 | nda μM. Moreover, the IC50 in experiment [2] amounted to 0.104 µM.
For `C=CC(=O)N1CCN(c2nc(=O)n(-c3c(Cl)cccc3C(C)C)c3nc(-c4c(O)cccc4F)c(F)cc23)[C@@H](C)C1` (single isomer, unassigned) [Example 57-15-2] the same measures were 0.841 | nda μM and 0.984 µM.
On to `C=CC(=O)N1CCN(c2nc(=O)n(-c3c(C)cccc3C(C)(C)C)c3nc(-c4c(O)cccc4F)c(F)cc23)[C@@H](C)C1` (single isomer, unassigned) [Example 57-17-1], for which the “Coupled exchange IC50 (5 min)” value in experiment [1] was 0.316 | nda μM. Also, in experiment [2] (Homo sapiens, MIA PaCa-2, 2 h), the IC50 is 0.3 µM.
Consider `C=CC(=O)N1CCN(c2nc(=O)n(-c3ccccc3C(C)(C)C)c3nc(-c4c(O)cccc4F)c(F)cc23)[C@@H](C)C1` (single isomer, unassigned) [Example 58-1-2], for which the “Coupled exchange IC50 (5 min)” value in experiment [1] is 0.572 | nda μM. Further, the half-inhibitory concentration (IC50) in experiment [2] (Homo sapiens, MIA PaCa-2, 2 h) turned out to be 0.57 µM.
In the case of `C=CC(=O)N1CCN(c2nc(=O)n(-c3c(C(F)(F)F)ccnc3C(C)C)c3nc(-c4c(O)cccc4F)c(F)cc23)[C@@H](C)C1` (single isomer, unassigned) [Example 58-3-1], the “Coupled exchange IC50 (5 min)” value in experiment [1] was 0.097 | nda μM. Besides, in experiment [2], the concentration for half-maximal inhibition (IC50) turned out to be 0.144 µM.
For `C=CC(=O)N1CCN(c2nc(=O)n(-c3c(C(F)(F)F)ccnc3C(C)C)c3nc(-c4c(O)cccc4F)c(F)cc23)[C@@H](C)C1` (single isomer, unassigned) [Example 58-3-2] the same measures were 0.485 | nda μM and 0.867 µM.
As for `C=CC(=O)N1CCN(c2nc(=O)n(-c3c(C)ccnc3C(C)C)c3nc(-c4ccccc4F)c(F)cc23)[C@@H](C)C1` (single isomer, unassigned) [Example 58-4-1], in experiment [1], the “Coupled exchange IC50 (5 min)” value is 0.212 | nda μM. Further, the IC50 in experiment [2] (Homo sapiens, MIA PaCa-2, 2 h) was 0.114 µM.
For `C=CC(=O)N1CCN(c2nc(=O)n(-c3c(C)ccnc3C(C)C)c3nc(-c4cc(O)ccc4F)c(F)cc23)[C@@H](C)C1` (single isomer, unassigned) [Example 58-5-2] the same measures were 0.216 | nda μM and 0.743 µM.
For `C=CC(=O)N1CCN(c2nc(=O)n(-c3c(C)ccnc3C(C)C)c3nc(-c4cc(N)ccc4F)c(F)cc23)[C@@H](C)C1` (single isomer, unassigned) [Example 58-6-2], in experiment [1], the “Coupled exchange IC50 (5 min)” value was 0.236 | nda μM. In addition, the IC50 in experiment [2] (Homo sapiens, MIA PaCa-2, 2 h) stood at 0.367 µM.
As for `C=CC(=O)N1CCN(c2nc(=O)n(-c3c(C)ccnc3C(C)C)c3nc(-c4cc(O)cc(Cl)c4Cl)c(F)cc23)[C@@H](C)C1` (single isomer, unassigned) [Example 58-7-1], the “Coupled exchange IC50 (5 min)” value in experiment [1] is 0.335 | nda μM. Besides, the IC50 in experiment [2] came out at 1.84 µM.
As for `C=CC(=O)N1CCN(c2nc(=O)n(-c3c(C)ccnc3C(C)C)c3nc(-c4cc(O)cc(Cl)c4Cl)c(F)cc23)[C@@H](C)C1` (single isomer, unassigned) [Example 58-7-2], the “Coupled exchange IC50 (5 min)” value in experiment [1] is 0.041 | nda μM. The IC50 in experiment [2] stood at 0.515 µM.
In the case of `C=CC(=O)N1CCN(c2nc(=O)n(-c3c(C)ccnc3C(C)C)c3nc(-c4cc(N)ccc4Cl)c(F)cc23)[C@@H](C)C1` (single isomer, unassigned) [Example 58-8-1], the “Coupled exchange IC50 (5 min)” value in experiment [1] is 0.213 | nda μM. Besides, in experiment [2] (Homo sapiens, MIA PaCa-2, 2 h), the IC50 came to 0.18 µM.
For the compound `C=CC(=O)N1CCN(c2nc(=O)n(-c3c(C)ccnc3C(C)C)c3nc(-c4c(O)cccc4Cl)c(F)cc23)[C@@H](C)C1` (single isomer, unassigned) [Example 58-9-1], in experiment [1], the “Coupled exchange IC50 (5 min)” value was 0.046 | nda μM. Also, the IC50 in experiment [2] came out at 0.047 µM.
For `C=CC(=O)N1CCN(c2nc(=O)n(-c3c(C)ccnc3C(C)C)c3nc(-c4c(O)cccc4Cl)c(F)cc23)[C@@H](C)C1` (single isomer, unassigned) [Example 58-9-2], in experiment [1], the “Coupled exchange IC50 (5 min)” value is 0.349 | nda μM. The 50% inhibitory concentration (IC50) in experiment [2] stood at 0.326 µM.
For `C=CC(=O)N1CCN(c2nc(=O)n(-c3c(C)ccnc3C(C)C)c3nc(-c4ccc(F)cc4F)c(F)cc23)[C@@H](C)C1` (single isomer, unassigned) [Example 58-10-1], the “Coupled exchange IC50 (5 min)” value in experiment [1] was 0.264 | nda μM. Further, the IC50 in experiment [2] (Homo sapiens, MIA PaCa-2, 2 h) stood at 0.257 µM.
On the same counts, the results for `C=CC(=O)N1CCN(c2nc(=O)n(-c3c(C)cccc3C3CC3)c3nc(-c4c(O)cccc4F)c(F)cc23)[C@@H](C)C1` (single isomer, unassigned) [Example 58-13-2] are 0.26 | nda μM and 0.371 µM.
On the same counts, the results for `C=CC(=O)N1CCN(c2nc(=O)n(-c3c(C(C)C)ccnc3C)c3nc(-c4ccccc4F)c(F)cc23)[C@@H](C)C1` (single isomer, unassigned) [Example 58-16-2] are 0.315 | nda μM and 0.317 µM.
For `C=CC(=O)N1CCN(c2nc(=O)n(-c3ccccc3C(C)(C)C)c3nc(-c4ccccc4F)c(F)cc23)[C@@H](C)C1` (single isomer, unassigned) [Example 58-17-2] the same measures were 0.849 | nda μM and 0.672 µM.
In the case of `C=CC(=O)N1CCN(c2nc(=O)n(-c3c(C4CC4)ccnc3C)c3nc(-c4c(O)cccc4F)c(F)cc23)[C@@H](C)C1` (single isomer, unassigned) [Example 58-19-2], in experiment [1], the “Coupled exchange IC50 (5 min)” value is 0.226 | nda μM. In addition, in experiment [2] (Homo sapiens, MIA PaCa-2, 2 h), the IC50 is 0.525 µM.
Take `C=CC(=O)N1CCN(c2nc(=O)n(-c3c(C4CC4)ccnc3C)c3nc(-c4ccccc4F)c(F)cc23)[C@@H](C)C1` (single isomer, unassigned) [Example 58-20-2]: the “Coupled exchange IC50 (5 min)” value in experiment [1] is given as 0.807 | nda μM. Also, in experiment [2] (Homo sapiens, MIA PaCa-2, 2 h), the IC50 amounted to 0.41 µM.
On the same counts, the results for `C=CC(=O)N1CCN(c2nc(=O)n(-c3c(F)cccc3C(C)C)c3nc(-c4c(O)cccc4F)c(F)cc23)[C@@H](C)C1` (single isomer, unassigned) [Example 59-2-1] are 0.112 | nda μM and 0.137 µM.
